This experiment concerns E-cadherin expression in SW620 cells. In words: In-cell Western (ICW) cell-based functional assay of E-cadherin expression in SW620 cells. To be noted: Homo sapiens, SW-620; for fold induction at 10 µM: change in expression level of E-cadherin in response to 10 μM compound, SW620 cells, 24 hours; for EC50: inducement of E-cadherin expression in SW620 cells. On the procedure:
SW620 and H520 cells (5×10^4/100 μL) were seeded in a 96-well plate prior to treatment. Cells were treated with 10 μM concentration of synthesized compound in quadruplicate for 24 hours in RPMI 1640 supplemented medium and 100 μg/mL penicillin-streptomycin. The cells were then fixed with 100% methanol for 20 minutes at 4° C. The wells were then washed 2 times with PBS, permeabilized in 2% bovine serum albumin (BSA) and 0.2% TritonX-100 in PBS for 30 minutes at room temperature with gentle agitation, and blocked in LI-COR blocking buffer for 30 minutes at room temperature with gentle agitation. The cells were then incubated with the following primary antibodies: anti-E-Cadherin (1:500) and anti-α-Tubulin (1:1000) diluted in blocking buffer (1:1 dilution in PBS) for 2 hours at room temperature with gentle agitation. The cells were washed 4 times in PBS-T for 5 minutes each, and then incubated with the following secondary antibodies conjugated to a fluorescent entity: IRDye 800-conjugated goat anti-rabbit IgG (1:1000) and IRDye-700-conjugated goat anti-mouse IgG (1:2000) in blocking buffer (1:1 dilution in PBS) with gentle agitation for 1 h at room temperature. The cells were washed 4 times in PBS-T for 5 minutes each followed by a single wash with PBS. All liquid was removed from the wells and the plates were visualized and analyzed on the Odyssey IR imaging system (LI-COR Biosciences).
The assay was further optimized in the following manner. The cells were washed 2 times with PBS, fixed in 100% methanol at room temperature for 15 minutes, and again washed 2 times with PBS. The cells were then incubated with the following primary antibodies: anti-E-Cadherin (1:200) and anti-α-Tubulin (1:2000) diluted in ice cold 2% bovine serum albumin (BSA) and 0.2% TritonX-100 in PBS for 1 hour at room temperature with gentle agitation. The cells were washed 2 times in PBS and then incubated with the following secondary antibodies conjugated to a fluorescent entity: Licor 800-conjugated goat anti-rabbit IgG (1:2000) and IRDye-700-conjugated goat anti-mouse IgG (1:2000) in ice cold 2% BSA and 0.2% TritonX-100 in PBS with gentle agitation for 45 minutes at room temperature. The wells were washed 2 times in PBS, dried, and analyzed as previously mentioned.
N-(3-(Arylamino)alkyl)-5-arylisoxazole-3-carboxamide analogs were synthesized as described above. Changes in expression level of E-cadherin in response to 10 μM compound in SW620 cells was determined in the cell-based functional assay as described above, and the data are shown in Table II. The compound number corresponds to the compound numbers used in Table I.
EC50 of inducement of E-cadherin expression in SW620 cells was determined in the cell-based functional assay as described above, and the data are shown in Table III. The compound number corresponds to the compound numbers used in Table I.

Experimental findings from US9505729B2, “Isoxazole analogs as mediators of transcriptional induction of E-cadherin” (Vanderbilt University, priority 2014, dated 2016) are described below.

SMILES strings stand for the structures.

`Cc1cc(CNCCCNC(=O)c2cc(-c3ccccc3)[nH]n2)on1` [Compound 31, N-(3-(((3-methylisoxazol-5-yl)methyl)amino)propyl)-5-phenyl-1H-pyrazole-3-carboxamide]: the fold induction (commonly the ratio of treated to control signal) at 10 µM came out at 2.52.
Turning to `[N-]=[N+]=Nc1ccnc(NCCCNC(=O)c2cc(-c3ccccc3)[nH]n2)n1` [Compound 39, N-(3-((4-azidopyrimidin-2-yl)amino)propyl)-5-phenyl-1H-pyrazole-3-carboxamide], the fold induction at 10 µM was determined as 15.9 and the midpoint of the response, the EC50, lay at 5.32 µM.
For the compound `CC(=O)n1cc(CNCCCNC(=O)c2cc(-c3ccccc3)[nH]n2)c2ccccc21` [Compound 34, N-(3-(((1-acetyl-1H-indol-3-yl)methyl)amino)propyl)-5-phenyl-1H-pyrazole-3-carboxamide], the fold induction at 10 µM worked out at 3.58.
For the compound `[N-]=[N+]=Nc1nccc(NCCCNC(=O)c2cc(-c3ccccc3)[nH]n2)n1` [Compound 37, N-(3-((2-azidopyrimidin-4-yl)amino)propyl)-5-phenyl-1H-pyrazole-3-carboxamide], the fold induction at 10 µM came to 6.09 and the EC50 – broadly, the concentration at which the effect is half-maximal – came out at 15 µM.
